{"source": "patent US20250186448A1", "about": "(Mezzion Pharma Co., Ltd., priority 2021, published 2025)", "key": {"[1]": {"system": "adolescents with Single Ventricle Heart Disease who underwent Fontan palliation", "assay": "FALD study: circulating biomarkers of heart failure and liver fibrosis (HA, PIIINP, TIMP-1, BNP and others)", "type": "in vivo, human", "parameters": "HA, Post Baseline / TIMP−1, Post Baseline: unit not given beside the values; HA, Change from Baseline / TIMP−1, Change from Baseline / BNP, Change from Baseline: unit not given here", "details": "Cohort U− (udenafil for 52 weeks), individual subject", "text": "As noted previously, increased liver stiffness can be secondary to hepatic congestion and/or hepatic fibrosis. […] For instance, patients with increased liver stiffness due to hepatic congestion may have increased biomarkers of heart failure (e.g., BNP, NT-proBNP). […] The relative contribution of congestion or fibrosis (as determined by biomarker profiles) to the observed level of liver stiffness may correlate with which therapeutic strategies are likely to be successful in a particular patient. Therefore, in this aim, we sought to determine which circulating biomarkers correlate with measures of liver stiffness and which correlate with a change in liver stiffness with udenafil treatment. We used both a directed approach, with an analysis of candidate biomarkers validated for other disease processes, and a non-directed approach, which identifies novel biomarkers associated with FALD. The FALD study, ClinicalTrials.gov Identifier: NCT03430583, which is incorporated herein by reference in its entirety, was an open-label extension study that integrated with the FUEL Extension Trial. […] Both the U− cohort and the U+ cohort had liver stiffness measured by ultrasound and MR elastography (where available), and ELF biomarkers analyzed, as described above. […] The Enhanced Liver Fibrosis (ELF) scores were based on the serum levels of hyaluronic acid (HA), amino-terminal propeptide of type III collagen (PIIINP), and tissue inhibitor of metalloproteinase-1 (TIMP-1). Testing was performed by the FUEL-OLE Central Laboratory using the serum samples. In accordance with prior studies, we assigned those patients with scores of <7.7 to the no-fibrosis or mild fibrosis group, 7.7-9.8 to the moderate fibrosis group, 9.8-11.3 to the severe fibrosis group, and >11.3 to the cirrhosis group."}, "[2]": {"system": "adolescents with Single Ventricle Heart Disease who underwent Fontan palliation", "assay": "FALD study: liver stiffness by MR elastography", "type": "in vivo, human", "parameters": "MRE, Post Baseline: unit not given beside the values; MRE, Change from Baseline / MRE, Baseline: unit not given here", "method": "MR elastography uses a vibrating passive driver or “paddle” placed on the abdominal wall over the liver in order to generate in vivo shear waves. These shear waves can be tracked using an MRI modified phase contrast pulse sequence. Shear wave data is then used to generate color parameteric maps (elastograms) of liver stiffness that allow quantitative assessment (FIG. 4). […] Pairwise ICCs ranged from 0.67-0.82 when agreement was assessed between individual sequences across manufacturers (GE vs. Philips); the greatest agreement while fixing the pulse sequence was at 1.5 T using 2D GRE sequences (ICC=0.82, r=0.85). Trout […], Kohli R, Sprague […]. Prospective assessment of correlation between US acoustic radiation forced impulse and MR elastography in a pediatric population: Dispersion of US shear-wave speed measurement matters. Radiology 2016 December; 282(3): 544-552. The FALD study, ClinicalTrials.gov Identifier: NCT03430583, which is incorporated herein by reference in its entirety, was an open-label extension study that integrated with the FUEL Extension Trial. […] Both the U- cohort and the U+ cohort had liver stiffness measured by ultrasound and MR elastography (where available), and ELF biomarkers analyzed, as described above. […] The primary outcome measure of the FALD study was the range of liver stiffness in adolescents with Single Ventricle Heart Disease who underwent Fontan palliation. Secondary outcome measures included the effect of drug therapy on liver stiffness, and the effect of drug therapy on Enhanced Liver Fibrosis (ELF) score. See Clinical Trials.gov identifier NCT03430583, at p. 3. It is to be understood that present invention contemplates udenafil drug products that are therapeutically equivalent to the udenafil drug products of the present invention."}, "[3]": {"details": "Cohort U+ (udenafil for 78 weeks), individual subject"}, "[4]": {"details": "Cohort U− (udenafil for 52 weeks), individual subject"}, "[5]": {"details": "individual subject listing, Safety Population"}}, "note": "Several values for one entry are separate records, joined by “and”; a condition that tells them apart may be missing. Equal values may be shown once.", "data": [{"smiles": "CCCOc1ccc(S(=O)(=O)NCCC2CCCN2C)cc1-c1nc2c(CCC)nn(C)c2c(=O)[nH]1", "note": "(stereo not shown) [Udenafil, udenafil]", "values": [{"measurement": "BNP, % Change from Baseline", "setting": "[1]", "value": "−83.33% and −55.56% and −96.2963% and −33.75% and −25.17% and −20%"}, {"measurement": "BNP, Change from Baseline", "setting": "[1]", "value": "−5 and −25 and −26 and −10.7 and −3.7 and −6.5 and −3"}, {"measurement": "HA, % Change from Baseline", "setting": "[1]", "value": "−23.28% and −55.89% and −92.1% and −78.47% and 255.6% and 69.68%"}, {"measurement": "HA, Change from Baseline", "setting": "[1]", "value": "−10.87 and −67.92 and −82.42 and −137.35 and 54.28 and 27.67 and 3.05"}, {"measurement": "PIIINP, % Change from Baseline", "setting": "[1]", "value": "−52.39% and −50.4522% and 5.12% and −50.05% and −15.3% and 66.2%"}, {"measurement": "PIIINP, Change from Baseline", "setting": "[1]", "value": "−19.04 and −15.62 and 0.77 and −23.08 and −2.33 and 9.99 and 1.99"}, {"measurement": "TIMP−1, % Change from Baseline", "setting": "[1]", "value": "1.424% and 1.608% and 25.82% and −5.136% and 3.739% and 19.54%"}, {"measurement": "TIMP−1, Change from Baseline", "setting": "[1]", "value": "2.3 (2×) and 39.4 and −9.8 and 6.2 and 47.1 and 56.3"}, {"measurement": "BNP, Post Baseline", "setting": "[1]; Post Baseline visit (52 week)", "value": "1 (2×) and 20 and 21 and 11 and 26 and 3"}, {"measurement": "HA, Post Baseline", "setting": "[1]; Post Baseline visit (52 week)", "value": "35.83 and 53.6 and 7.07 and 37.68 and 75.52 and 67.38 and 23.1"}, {"measurement": "PIIINP, Post Baseline", "setting": "[1]; Post Baseline visit (52 week)", "value": "17.3 and 15.34 and 15.81 and 23.03 and 12.9 and 25.08 and 27.3"}, {"measurement": "TIMP−1, Post Baseline", "setting": "[1]; Post Baseline visit (52 week)", "value": "163.8 and 145.3 and 192 and 181 and 172 and 288.2 and 290.4"}, {"measurement": "MRE, % Change from Baseline", "setting": "[2]; [3]", "value": "2.863% and −2.262% and 12.04% and −0.4975% and 7.265% and −14.99% and −24.27% and 16.67% and 18.93% and 0.4975% and −29.4964% and 2.198% and −16.26% and 10.4% and −20.63% and −8.58% and −11.11% and −19.68% and −21.1704% and −12.02% and −6.235%"}, {"measurement": "MRE, Change from Baseline", "setting": "[2]; [3]", "value": "0.15 and −0.1 and 0.49 and −0.03 and 0.98 and 0.34 and −0.52 and −1.59 and 0.81 and 0.03 and −1.64 and 0.1 and −0.86 and 0.7 and −1.05 and −0.58 and −0.67 and −0.98 and −1.23 and −0.59 and −0.26"}, {"measurement": "MRE, Baseline", "setting": "[2]; Cohort U+ (udenafil for 78 weeks), individual subject, Baseline visit", "value": "4.42 and 5.88 and 4.07 and 6.03 (3×) and 4.68 and 3.47 and 6.55 and 4.28 and 5.56 and 3.65 and 4.55 and 5.29 and 6.73 and 5.09 and 6.76 and 4.98 and 5.81 and 4.91 and 4.17 and 5.24"}, {"measurement": "MRE, Post Baseline", "setting": "[2]; Cohort U+ (udenafil for 78 weeks), individual subject, Post Baseline visit (52 week)", "value": "5.39 and 4.32 (2×) and 6.86 and 4.56 and 6 and 5.02 and 2.95 and 4.96 and 5.09 and 6.06 and 3.92 and 4.65 and 4.43 and 7.43 and 4.04 and 6.18 and 5.36 and 4 and 4.58 and 3.91"}, {"measurement": "MRE, % Change from Baseline", "setting": "[2]; [4]", "value": "8.484% and 8.085%"}, {"measurement": "MRE, Change from Baseline", "setting": "[2]; [4]", "value": "0.61 and 0.19"}, {"measurement": "MRE, Post Baseline", "setting": "[2]; Cohort U− (udenafil for 52 weeks), individual subject, Post Baseline visit (52 week)", "value": "7.8 and 2.54"}, {"measurement": "MRE, % Change from Baseline", "setting": "[2]; [5]", "value": "2.488% and −28.79% and 3.632% and −2.018% and −21.1838% and 67.93% and 25.85% and 11.98% and −10.36% and 12.33% and −5.348% and 17.24% and 33.15% and −8% and −7.32%"}, {"measurement": "MRE, Change from Baseline", "setting": "[2]; [5]", "value": "0.1 and −1.48 and 0.15 and −0.11 and −1.36 and 3.05 and 1.22 and 0.72 and −0.43 (2×) and 0.64 and 1 and 1.2 and −0.44 and −0.53"}, {"measurement": "MRE, Post Baseline", "setting": "[2]; individual subject listing, Safety Population, Post Baseline visit", "value": "4.12 and 3.66 and 4.28 and 5.34 and 5.06 (2×) and 7.54 and 5.94 and 6.73 and 3.72 and 5.83 and 2.81 and 7.61 and 6.8 and 4.82 and 6.71"}]}]}
